Laboratory results reported in patent US20120316105A1, “Polymyxin Derivates Useful As Antibacterial Agents” (priority 2011, published 2012).
Where two headings read alike, the source gives them in different places. Bridge positions count the residues as written; N and C are the ends. Square brackets hold non-standard residues; d marks the D form. Peptide text beside a SMILES is read from it. * marks the point of attachment. Isonicotinoyl(2-Ph) = O=C(c1ccnc(-c2ccccc2)c1)*; X3 = O=C(c1ccnc(-c2cccc(Cl)c2)c1)*; dDap = NC[C@@H](N)C(=O)O; Dab = NCC[C@H](N)C(=O)O; Dap = NC[C@H](N)C(=O)O

Assays:
[1] = system: EC-1, mouse virulent strain of Escherichia coli; assay type: cell-based; conditions: E. coli EC-1; overnight incubation, lower of duplicate values; trifluoroacetate salt (Example 1 and PMB sulfate)
Outline: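 Compounds were tested mostly as trifluoroacetate salts. Duplicate CLSI broth-dilution MICs were read visually after overnight incubation over 2-fold dilutions, with the lower of duplicates within 2-fold taken. QC organisms and reference drugs were included in each run.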

[2] = system: KP-5016, ESBL+ clinical isolate of Klebsiella pneumoniae (SHV-5); assay: Minimum inhibitory concentration (MIC, CLSI), KP-5016; assay type: cell-based; conditions: K. pneumoniae KP-5016; overnight incubation, lower of duplicate values; trifluoroacetate salt (Example 1 and PMB sulfate)
Method: (§1) Minimum bactericidal concentration (MBC, mg/L), minimum inhibitory concentration (MIC, mg/L), and human renal proximal tubule epithelial cell line cytotoxicity concentration 50% (hRPTEC, TC50, micromolar) for compounds of Formula I are listed in Table 2. The compounds of Formula I were tested as the corresponding trifluoroacetate salt except for Example 1 which was tested as the sulfate salt. For Table 2 below: PMB=polymyxin B as the sulfate salt (Bedford Laboratories, pharmaceutical grade); PMB1=polymyxin B1 as the trifluoroacetate salt; Nona=polymyxin B nonapeptide as the trifluoroacetate salt. PMB1 and Nona were prepared using the solid phase methodology described in the experimental section herein.
(§2) The in vitro antibacterial activity of compounds of Formula I was evaluated by MIC testing according to Clinical and Laboratory Standards Institute (CLSI). See: Clinical and Laboratory Standards Institute. Methods for Dilution Antimicrobial Susceptibility Tests for Bacteria that Grow Aerobically; Approved Standard-Eighth Edition. CLSI document M7-A8 [ISBN 1-56238-689-1]. Clinical and Laboratory Standards Institute, 940 West Valley Road, Suite 1400, Wayne, Pa. 19087-1898 USA, 2006; also Clinical and Laboratory Standards Institute. Performance Standards for Antimicrobial Susceptibility Testing; Twentieth Informational Supplement. CLSI document M100-S20 [ISBN 1-56238-716-2]. Clinical and Laboratory Standards Institute. Methods for Determining Bactericidal Activity of Antimicrobial Agents; Approved Guideline. CLSI document M26-A (ISBN 1-56238-384-1). CLSI, 940 West Valley Road, Suite 1400, Wayne, Pa. 19087-1898 USA, 1999.
(§3) The MIC determination is a standard laboratory method for evaluating the antibacterial activity of a compound. The MIC represents the lowest drug concentration that inhibits visible growth of bacteria following overnight incubation. […] Typically, the drug concentration range is broken down into 2-fold increments (e.g. 0.06 mg/L, 0.12 mg/L, 0.25 mg/L, 0.50 mg/L, 1.0 mg/L, etc.) and the various drug concentrations are all individually incubated overnight with approximately the same number of bacteria. The MIC is then determined by visually inspecting the drug effect at each concentration, and identifying the lowest drug concentration that has inhibited bacterial growth as compared to the drug free control. Typically, bacteria continue to grow at drug concentrations lower than the MIC and don't grow at concentrations at and above the MIC.
(§4) The MIC values described in Table 2 below were derived from assays wherein each test compound was evaluated in duplicate. In cases where the duplicate values varied by 0-2-fold, the lower of the two values was reported below. Generally speaking, if the duplicate values varied by more than 2-fold, the assay was considered non-valid and was repeated until the variation between duplicate runs was ≦2-fold. In line with the CLSI guidelines referred to above, both control organisms and reference compounds were utilized in each MIC assay to provide proper quality control. MIC values generated with these control organisms and reference compounds were required to fall within a defined range for the assay to be considered valid and be included herein. Those skilled in the art will recognize that MIC values can and do vary from experiment to experiment. Generally speaking, it should be recognized that MIC values often vary +/−2-fold from experiment to experiment. While a single MIC is reported for each compound and each microorganism, the reader should not conclude that each compound was only tested once. Several of the compounds were subjected to multiple tests. The data reported in Table 2 is reflective of the compounds relative activity and different MICs may have been generated on these occasions in line with the guidelines described above.
The following bacterial strains were used in these MIC determinations: […]

[3] = Cytotoxicity assay (LDH release), hRPTEC; assay type: cell-based, human; conditions: for CC50 at 24 h: human
Outline: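 hRPTEC grown 72 h in REGM, then exposed to compounds at 100, 67, 44, 30, 20 and 13 micromolar for 24 h at 37° C, 5% CO2. LDH released into supernatant measured; TC50 (micromolar) derived. Compounds tested as trifluoroacetate salts unless otherwise noted.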

[4] = system: KP-3700, ESBL+ clinical isolate of Klebsiella pneumoniae; assay: Minimum inhibitory concentration (MIC, CLSI), KP-3700; assay type: cell-based; conditions: K. pneumoniae KP-3700; overnight incubation, lower of duplicate values; trifluoroacetate salt (Example 1 and PMB sulfate)
Method: as §1, §2, §3, §4
The following bacterial strains were used in these MIC determinations:
KP-3700 is an ESBL+clinical isolate of Klebsiella pneumoniae obtained in 2006; and […]

[5] = system: AB-1649, polymyxin-resistant clinical isolate of Acinetobacter baumannii; assay type: cell-based; conditions: AB-1649, polymyxin-resistant clinical isolate of
Outline: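 Broth dilution MIC per CLSI against the polymyxin-resistant A. baumannii isolate, 2-fold dilutions, overnight incubation, visual read of lowest concentration inhibiting growth. Run in duplicate, lower value reported when within 2-fold; MBC per CLSI M26-A guideline.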

[6] = system: Pseudomonas aeruginosa strain PA01; assay type: cell-based; conditions: strain
Outline: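 CLSI broth dilution against P. aeruginosa PA01 with two-fold concentration steps and overnight incubation; MIC is lowest concentration visibly inhibiting growth versus drug-free control, in mg/L. Compounds tested as trifluoroacetate salts, in duplicate, lower value reported if within 2-fold; control organisms and reference compounds included.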

[7] = system: PA-1646, polymyxin-resistant clinical isolate of Pseudomonas aeruginosa; assay type: cell-based; conditions: PA-1646, polymyxin-resistant clinical isolate of
Outline: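 Broth dilution MIC per CLSI with 2-fold concentration steps, read visually after overnight incubation as lowest concentration inhibiting growth; duplicates within 2-fold, lower value reported, with QC strains and reference compounds. Compounds tested as trifluoroacetate salts, polymyxin B as sulfate.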

[8] = system: AB-3167, clinical isolate of Acinetobacter baumannii; assay type: cell-based
Outline: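 Broth dilution MIC per CLSI (M7-A8, M100-S20, M26-A for bactericidal), 2-fold dilution series, overnight incubation, visual read of lowest concentration inhibiting growth versus drug-free control. Duplicates run; lower value reported if within 2-fold, otherwise repeated. Compounds tested as trifluoroacetate salts; QC strains and reference compounds required in range.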

[9] = system: PA-1646, polymyxin-resistant clinical isolate of Pseudomonas aeruginosa; assay type: cell-based; conditions: PA-1646, polymyxin-resistant clinical isolate of; remark: listed apart in the source
Outline: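 Broth dilution MIC and bactericidal (MBC) testing per CLSI methods (M7-A8, M100-S20, M26-A) against polymyxin-resistant clinical P. aeruginosa isolate PA-1646. Compounds tested as trifluoroacetate salts, one as sulfate salt; values in mg/L.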

[10] = system: AB-1649, polymyxin-resistant clinical isolate of Acinetobacter baumannii; assay type: cell-based; conditions: AB-1649, polymyxin-resistant clinical isolate of; remark: listed apart in the source
Outline: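 MIC and MBC were measured by CLSI broth dilution methods (M7-A8, M100-S20, M26-A) against a polymyxin-resistant clinical isolate and reported in mg/L. Compounds were tested as trifluoroacetate salts, with one exception tested as the sulfate.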

SMILES | EC-1 MIC [1] [µg/mL] | KP-5016 MIC [2] [µg/mL] | CC50 at 24 h [3] [µM] | KP-3700 MIC [4] [µg/mL] | AB-1649 MIC [5] [µg/mL] | PA01 MIC [6] [µg/mL] | PA-1646 MIC [7] [µg/mL] | AB-3167 MIC ([8]; AB-3167, clinical isolate of) [µg/mL] | PA-1646 MBC [9] [µg/mL] | AB-1649 MBC [10] [µg/mL] | AB-3167 MIC ([8]; A. baumannii AB-3167, overnight incubation, lower of duplicate values, trifluoroacetate salt (Example 1 and PMB sulfate)) [µg/mL] | CC50 [3] [µM]
CC(C)C[C@@H]1NC(=O)[C@@H](Cc2ccccc2)NC(=O)[C@H](CCN)NC(=O)[C@@H](NC(=O)[C@H](CN)NC(=O)[C@H](CO)NC(=O)[C@H](CCN)NC(=O)c2ccnc(-c3ccccc3)c2)CCNC(=O)[C@H]([C@@H](C)O)NC(=O)[C@H](CCN)NC(=O)[C@H](CCN)NC1=O [Example 46] ({Isonicotinoyl(2-Ph)}-[Dab]S[Dap][Dab][Dab][dF]L[Dab][Dab]T; lactam 4-C) | 0.25 | 64 | 98 | 0.5 | 4 | 0.5 | 64 | 1 | – | – | – | –
CC(C)C[C@@H]1NC(=O)[C@@H](Cc2ccccc2)NC(=O)[C@H](CCN)NC(=O)[C@@H](NC(=O)[C@@H](CN)NC(=O)[C@@H](NC(=O)[C@H](CCN)NC(=O)c2ccnc(-c3ccccc3)c2)[C@@H](C)O)CCNC(=O)[C@H]([C@@H](C)O)NC(=O)[C@H](CCN)NC(=O)[C@H](CCN)NC1=O [Example 47] ({Isonicotinoyl(2-Ph)}-[Dab]T[dDap][Dab][Dab][dF]L[Dab][Dab]T; lactam 4-C) | 0.25 | 8 | 100 | 0.25 | 4 | 0.5 | 1 | 0.5 | 2 | 4 | – | –
CC[C@H](C)[C@@H]1NC(=O)[C@@H](Cc2ccccc2)NC(=O)[C@H](CCN)NC(=O)[C@@H](NC(=O)[C@H](CN)NC(=O)[C@@H](NC(=O)[C@H](CCN)NC(=O)c2ccnc(-c3cccc(Cl)c3)c2)[C@@H](C)O)CCNC(=O)[C@H]([C@@H](C)O)NC(=O)[C@H](CCN)NC(=O)[C@H](CCN)NC1=O [Example 48] (X3-[Dab]T[Dap][Dab][Dab][dF]I[Dab][Dab]T; lactam 4-C) | 0.25 | 32 | 33 | 0.25 | 0.5 | 0.5 | 1 | 0.25 | 2 | 0.5 | – | –
CC[C@H](C)[C@@H]1NC(=O)[C@@H](Cc2ccccc2)NC(=O)[C@H](CCN)NC(=O)[C@@H](NC(=O)[C@H](CN)NC(=O)[C@@H](NC(=O)[C@H](CCN)NC(=O)c2ccnc(-c3ccccc3)c2)[C@@H](C)O)CCNC(=O)[C@H]([C@@H](C)O)NC(=O)[C@H](CCN)NC(=O)[C@H](CCN)NC1=O [Example 49] ({Isonicotinoyl(2-Ph)}-[Dab]T[Dap][Dab][Dab][dF]I[Dab][Dab]T; lactam 4-C) | 0.125 | 16 | > 100 | 0.25 | 0.25 | 0.5 | 4 | – | 8 | 0.25 | 0.125 | –
CC(C)C[C@@H]1NC(=O)[C@@H](Cc2ccccc2)NC(=O)[C@H](CCN)NC(=O)[C@@H](NC(=O)[C@H](CCN)NC(=O)[C@@H](N)[C@@H](C)O)CCNC(=O)[C@H]([C@@H](C)O)NC(=O)[C@H](CCN)NC(=O)[C@H](CCN)NC1=O [Nona, polymyxin B nonapeptide, reference compound] (H-T[Dab][Dab][Dab][dF]L[Dab][Dab]T; lactam 3-C (inferred)) | >64 | >64 | – | >64 | >64 | >64 | >64 | >64 | >64 | >64 | – | > 100
